Laboratory results as given in patent US20250353873A1, “COMPOUNDS AND METHODS FOR MODULATING APOE EXPRESSION” (Ionis Pharmaceuticals, Inc., priority 2024, published 2025).
Marks after values point to notes of the source that are not given here. Strand notation (5' to 3'): a small letter for the sugar, then the base; units joined by * are phosphorothioate-linked, units joined directly phosphodiester-linked; [ ] holds rarer units or linkages, { } end groups; capitals alone tell only the bases. [ms] = mesyl phosphoramidate linkage; e = 2'-O-(2-methoxyethyl) (MOE); k = constrained ethyl (cEt); [5mC] = 5-methylcytosine; d = 2'-deoxy (DNA)

How the values were obtained:
[1] = test system: human APOE RNA; experiment: Duration of action study in APOE C57BL/6NTac-Apoeem7250 knock-in mice (Example 16); format: in vivo; conditions: 300 μg ICV
Summary of the method: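 Knock-in mice (2-4 per group) received a single ICV bolus of 300 μg oligonucleotide or PBS. At various timepoints, cortex and spinal cord human APOE RNA was measured by RT-qPCR (RTS3073), normalized to mouse Ppia and expressed as % of PBS control.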

[2] = test system: human APOE RNA; experiment: Potency (dose response, ED50) in APOE C57BL/6NTac-Apoeem7250 knock-in mice, 8 weeks (Example 15); format: in vivo
Experimental: Modified oligonucleotides described above were tested in the APOE C57BL/6NTac-Apoeem7250 knock-in mouse model described above.
APOE C57BL/6NTac-Apoeem7250 knock-in mice were divided into groups of 3-4 mice each. A group of 4 mice received a single ICV bolus with PBS as a negative control.
Eight weeks post treatment, mice were sacrificed, and RNA was extracted from cortical brain tissue and spinal cord for quantitative real-time RT-PCR analysis of RNA expression of […] using human primer probe set RTS3073 (described herein above). APOE RNA levels were normalized to mouse Ppia. Mouse Ppia was amplified using primer probe set m_cyclo24 (described herein above). Results are presented as percent human APOE RNA relative to the amount of APOE RNA in PBS treated animals, (% control). N.C. indicates values that were not calculated.
The half maximal effective dose (ED50) of each modified oligonucleotide was calculated using GraphPad Prism 10 software (GraphPad Software, San Diego, CA).

[3] = test system: human APOE RNA; experiment: Duration of action study in APOE C57BL/6NTac-Apoeem7250 knock-in mice (Example 18); format: in vivo; conditions: single ICV bolus 300 μg, APOE knock-in mice, normalized to mouse Ppia, relative to PBS
Experimental: Modified oligonucleotides described above were tested in the APOE C57BL/6NTac-Apoeem7250 knock-in model (described above).
Each mouse received a single intracerebroventricular (ICV) bolus of 300 μg of modified oligonucleotide. A group of 4-6 mice received a single ICV bolus with PBS as a negative control.
Mice were sacrificed at various timepoints as indicated in the table below and RNA was extracted from cortical brain tissue and spinal cord for quantitative real-time RT-PCR analysis of RNA expression of APOE using primer probe set RTS3073 (described herein above). APOE RNA levels were normalized to mouse Ppia. Mouse Ppia was amplified using primer probe set m_cyclo24 (described herein above). Results are presented as percent human APOE RNA relative to the amount of human APOE RNA in PBS treated animals, (% control). Each experiment is identified in separate tables below.

[4] = test system: human APOE RNA; experiment: Activity in APOE C57BL/6NTac-Apoeem7250 knock-in mice, single ICV bolus, 16 weeks (Example 12); format: in vivo; conditions: single ICV bolus 300 μg, 16 weeks post treatment, normalized to mouse Ppia
Summary of the method: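 A single 300 μg intracerebroventricular dose was given, with PBS-treated mice as reference; cortical and spinal cord tissue was taken 16 weeks later. RT-qPCR quantified human APOE RNA, Ppia-normalized, expressed relative to PBS animals (% control).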

[5] = test system: human APOE RNA; experiment: Dose-dependent inhibition of human APOE RNA in HepG2 cells, electroporation, 50,000 cells per well, RT-PCR normalized to GAPDH (Example 4, Tables 8-10); format: cell-based
Summary of the method: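 Readout is percent APOE RNA versus untreated controls, measured by RT-PCR (primer probe set RTS3073) and normalized to human GAPDH. Modified oligonucleotides were delivered by electroporation at varying doses into HepG2 cells plated at 50,000 per well.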

[6] = test system: human APOE RNA; experiment: Activity in APOE C57BL/6NTac-Apoeem7250 knock-in mice, single ICV bolus, 20 weeks (Example 13); format: in vivo; conditions: single ICV bolus 300 μg, 20 weeks post treatment, normalized to mouse Ppia
Summary of the method: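 Cortical and spinal cord RNA was assayed by real-time RT-PCR for human APOE, normalized to mouse Ppia and reported as percent of PBS controls. Tissue was taken twenty weeks after one 300 μg intracerebroventricular bolus in APOE knock-in mice, 4 per group.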

**Q.** What does the source list for “Aes^mCeoTeoTesGesGksTdsGdzAdzAdzTds^mCdsTdsTdsTdsAdzTksTksAesAe (eA*e[5mC]eTeT*eG*kG*dT*dG[ms]dA[ms]dA[ms]dT*d[5mC]*dT*dT*dT*dA[ms]kT*kT*eA*eA) [Compound No. 1757576]”?
**A.** APOE RNA (% control) Cortex ([1]; 7 days post-dose): 45 % control; APOE RNA (% control) Cortex ([1]; 14 days post-dose): 32 % control; APOE RNA (% control) Spinal Cord ([1]; 7 days post-dose): 42 % control; APOE RNA (% control) Spinal Cord ([1]; 14 days post-dose): 25 % control; APOE RNA (% control) Cortex ([2]; cortex, ICV dose 10 μg): 93 % control; APOE RNA (% control) Cortex ([2]; cortex, ICV dose 30 μg): 92 % control; APOE RNA (% control) Cortex ([2]; cortex, ICV dose 100 μg): 52 % control; APOE RNA (% control) Cortex ([2]; cortex, ICV dose 300 μg): 30 % control; APOE RNA (% control) Cortex ([2]; cortex, ICV dose 700 μg): 18 % control; ED 50 (μg) Cortex ([2]; cortex, single ICV bolus, GraphPad Prism 10): 135.7 µg; APOE RNA (% control) Spinal Cord ([2]; ICV dose 10 μg): 33 % control; APOE RNA (% control) Spinal Cord ([2]; ICV dose 30 μg): 15 % control; APOE RNA (% control) Spinal Cord ([2]; ICV dose 100 μg): 13 % control; APOE RNA (% control) Spinal Cord ([2]; ICV dose 300 μg): 9 % control; APOE RNA (% control) Spinal Cord ([2]; ICV dose 700 μg): 9 % control; APOE RNA (% control) Cortex ([3]; 196 days post-dose): 71 % control; APOE RNA (% control) Cortex ([3]; 224 days post-dose): 92‡ % control; APOE RNA (% control) Cortex ([3]; 285 days post-dose): 87 % control; APOE RNA (% control) Spinal Cord ([3]; 196 days post-dose): 28 % control; APOE RNA (% control) Spinal Cord ([3]; 224 days post-dose): 33‡ % control; APOE RNA (% control) Spinal Cord ([3]; 285 days post-dose): 86 % control; APOE RNA (% control) Cortex ([4]; cortex): 45 % control; APOE RNA (% control) Spinal Cord ([4]; spinal cord): 14 % control; APOE RNA (% UTC) ([5]; 5 nM, HepG2, electroporation, 16-hour treatment): 86 % UTC; APOE RNA (% UTC) ([5]; 13 nM, HepG2, electroporation, 16-hour treatment): 74 % UTC; APOE RNA (% UTC) ([5]; 33 nM, HepG2, electroporation, 16-hour treatment): 80 % UTC; APOE RNA (% UTC) ([5]; 82 nM, HepG2, electroporation, 16-hour treatment): 84 % UTC; APOE RNA (% UTC) ([5]; 205 nM, HepG2, electroporation, 16-hour treatment): 74 % UTC; APOE RNA (% UTC) ([5]; 512 nM, HepG2, electroporation, 16-hour treatment): 61 % UTC; APOE RNA (% UTC) ([5]; 1,280 nM, HepG2, electroporation, 16-hour treatment): 45 % UTC; APOE RNA (% UTC) ([5]; 3,200 nM, HepG2, electroporation, 16-hour treatment): 32 % UTC; APOE RNA (% UTC) ([5]; 8,000 nM, HepG2, electroporation, 16-hour treatment): 22 % UTC; APOE RNA (% UTC) ([5]; 20,000 nM, HepG2, electroporation, 16-hour treatment): 7 % UTC; IC50 ([5]; HepG2, electroporation, 16-hour treatment): 820 nM; APOE RNA (% UTC) 5 nM ([5]; HepG2 cells, electroporation, 24-hour treatment, 5 nM, Table 8): 86 % UTC; APOE RNA (% UTC) 13 nM ([5]; HepG2 cells, electroporation, 24-hour treatment, 13 nM, Table 8): 81 % UTC; APOE RNA (% UTC) 33 nM ([5]; HepG2 cells, electroporation, 24-hour treatment, 33 nM, Table 8): 63 % UTC; APOE RNA (% UTC) 82 nM ([5]; HepG2 cells, electroporation, 24-hour treatment, 82 nM, Table 8): 67 % UTC; APOE RNA (% UTC) 205 nM ([5]; HepG2 cells, electroporation, 24-hour treatment, 205 nM, Table 8): 46 % UTC; APOE RNA (% UTC) 512 nM ([5]; HepG2 cells, electroporation, 24-hour treatment, 512 nM, Table 8): 23 % UTC; APOE RNA (% UTC) 1,280 nM ([5]; HepG2 cells, electroporation, 24-hour treatment, 1,280 nM, Table 8): 24 % UTC; APOE RNA (% UTC) 3,200 nM ([5]; HepG2 cells, electroporation, 24-hour treatment, 3,200 nM, Table 8): 11 % UTC; APOE RNA (% UTC) 8,000 nM ([5]; HepG2 cells, electroporation, 24-hour treatment, 8,000 nM, Table 8): 15 % UTC; APOE RNA (% UTC) 20,000 nM ([5]; HepG2 cells, electroporation, 24-hour treatment, 20,000 nM, Table 8): 2 % UTC; IC50 ([5]; reduction of human APOE RNA, HepG2 cells, electroporation, 24-hour treatment, Table 8): 140 nM; APOE RNA (% control) Cortex ([6]; cortex): 32 % control; APOE RNA (% control) Spinal Cord ([6]; spinal cord): 31 % control
